Experimental data from patent US20250304571A1, “BIOLOGICALLY ACTIVE COMPOUNDS AND METHODS THEREOF” (Suzhou Keen Therapeutics Co., Ltd., priority 2022, published 2025).

System: 786-O (renal cell carcinoma) cells
Assay: Cell viability (CellTiter Glo) assay, inhibition of 786-O cell proliferation
Assay type: cell-based
Conditions: 786-O cells, 72 hours, CellTiter Glo; read-out: IC50, inhibition of 786-O cell proliferation

`CNc1nc(COC(=N)N2CCC[C@@H]2C(F)(F)F)nc2c1C(C)(C)C(=O)N2c1cc(F)c2c(c1)nc(C)n2C(C)C` [Compound E32] and `CC1(C)C(=O)N(c2ccc3c(c2)C2(CCO3)CC2)c2nc(COC(=N)N3CCC[C@@H]3C(F)(F)F)nc(NCC(F)(F)F)c21` [Compound E66] cannot be ordered by IC50: under 0.1 µM for the first, under 0.1 µM for the second.

Same assay, conditions: Homo sapiens, 786-0, 72 h, read-out: IC50, inhibition of 786-O cell proliferation

`CN(C)C(=N)OCc1nc(NC2CCCCC2)c2cc[nH]c2n1` [Compound D9] and `CN(C)C(=N)OCc1ncc2c(n1)c(-c1ccc(Oc3ccccc3)cc1)nn2C` [Compound D11] fall in the same range of IC50: 0.5 to 5 µM for the first, 0.5 to 5 µM for the second.

`COc1cc(N2CCOCC2)ccc1N1CC(C)(C)c2c(OCC(F)(F)F)nc(COC(=N)N3CCC[C@@H]3C(F)(F)F)nc21` [Compound E17] and `C[C@@H]1CN(c2ccc(N3C(=O)C4(CCCC4)c4c(N)nc(COC(=N)N5CCC[C@@H]5C(F)(F)F)nc43)cn2)C[C@H](C)O1` [Compound E46] cannot be ordered by IC50: under 0.1 µM for the first, under 0.1 µM for the second.

`CNc1nc(COC(=N)N2CCCC2C(F)(F)F)nc2c1C(C)(C)C(=O)N2c1ccccc1Oc1ccccc1F` (stereo not shown) [Compound E29] gave an IC50 of under 0.1 µM.

Same assay, conditions: Homo sapiens, 786-0; 786-O cells, 72 hours, CellTiter Glo; read-out: IC50, inhibition of 786-O cell proliferation

Compared with `CNc1nc(COC(=N)N2CCC[C@H]2C(F)(F)F)nc2c1C1(CCCC1)C(=O)N2c1cnc(N2C[C@@H](C)O[C@@H](C)C2)nc1` (relative stereo) [Compound E103], `C[C@@H]1CN(c2ccc(N3C(=O)C4(CCCCC4)c4c(N)nc(COC(=N)N5CCC[C@@H]5C(F)(F)F)nc43)cn2)C[C@H](C)O1` [Compound E45] is lower in IC50: 0.1 to 0.5 µM for the first, under 0.1 µM for the second.

First: CCCC[C@H]1Cc2cc(OC)ccc2[C@H](c2ccc(F)cc2)N1C(=O)CO/C(=N\CCCN(C)C)NCC [Compound A3]
Second: CCCC[C@H]1Cc2cc(OC)ccc2[C@H](c2ccc(F)cc2)N1C(=O)CO/C(=N\C(C)C)NC(C)C [Compound A4]
The IC50 of the first is higher: over 5 µM for the first, 0.5 to 5 µM for the second. The second is the more potent here.

Compared with `CCCCC1Cc2c([nH]c3ccccc23)C(c2ccc(NC34CC5CC(CC(C5)C3)C4)cc2)N1C(=O)CO/C(=N\C(C)C)NC(C)C` (stereo not shown) [Compound B1], `CCCCC1Cc2c([nH]c3ccccc23)C(c2ccc(F)cc2)N1C(=O)COC(=N)N1CCN(CC)C(=O)C12CC2` (stereo not shown) [Compound B2] is lower in IC50: over 5 µM for the first, 0.5 to 5 µM for the second.

Going from `N=C(OCc1ncc2c(n1)N(c1ccc(Oc3ccccc3)cc1)C(=O)CC2)N1CCC(F)(F)CC1` [Compound C1] to `CNc1nc(COC(=N)N2CCC(F)(F)CC2)nc2c1C(C)(C)CN2c1ccc(Oc2ccccc2)cc1` [Compound E7, (5,5-dimethyl-4-(methylamino)-7-(4-phenoxyphenyl)-6,7-dihydro-5H-pyrrolo[2,3-d]pyrimidin-2-yl)methyl 4,4-difluoropiperidine-1-carbimidate], the IC50 falls from over 5 µM to under 0.1 µM. The second is the more potent here.

Compared with `CC1(C)CN(c2ccc(Oc3ccccc3)cc2)c2nc(COC(=N)NC34CC5CC(CC(C5)C3)C4)nc(N)c21` [Compound E3], `CC1(C)CN(c2ccc(Oc3ccccc3)cc2)c2nc(COC(=N)N3CCCC34COC4)ncc21` [Compound E11] is higher in IC50: 0.1 to 0.5 µM for the first, 0.5 to 5 µM for the second. The first is the more potent here.

First: COc1ccc(CNc2nc(COC(=N)N3CCC(F)(F)CC3)nc3c2C(C)(C)CN3c2ccc(Oc3ccccc3)cc2)cc1 [Compound E6]
Second: CC1(C)CN(c2ccc(Oc3ccccc3)cc2)c2nc(COC(=N)N3CCCCC3C(F)(F)F)ncc21 (stereo not shown) [Compound E10]
The IC50 of the first is higher: 0.1 to 0.5 µM for the first, under 0.1 µM for the second. The second is the more potent here.

First: CCN(CC(F)(F)F)C(=N)OCc1ncc2c(n1)N(c1ccc(Oc3ccccc3)cc1)CC2(C)C [Compound E9]
Second: N=C(OCc1ncc2c(n1)N(c1ccc(Oc3ccccc3)cc1)C(=O)C21CC1)N1CCCCC1C(F)(F)F (stereo not shown) [Compound E12]
The IC50 of the first is lower: under 0.1 µM for the first, 0.1 to 0.5 µM for the second.

First: CC(C)N(CC(F)(F)F)C(=N)OCc1ncc2c(n1)N(c1ccc(OC3CCCCC3)nc1)C(=O)C21CC1 [Compound E13]
Second: N=C(OCc1ncc2c(n1)N(c1ccc(N3CCOCC3)cc1)C(=O)C21CCCCC1)N1CCC[C@@H]1C(F)(F)F [Compound E58]
The IC50 of the first is higher: 0.1 to 0.5 µM for the first, under 0.1 µM for the second.

`CNc1nc(COC(=N)N2CCCC2C(F)(F)F)nc2c1C(C)(C)CN2c1ccc(N2CCOCC2)cc1OC` (stereo not shown) [Compound E15] and `COc1cc(N2CCOCC2)ccc1N1CC(C)(C)c2c(NCC(F)(F)F)nc(COC(=N)N3CCC[C@@H]3C(F)(F)F)nc21` [Compound E16] cannot be ordered by IC50: under 0.1 µM for the first, under 0.1 µM for the second.

`CC1(C)CN(c2ccc(N3CCOCC3)cc2)c2nc(COC(=N)N3CCCC3C(F)(F)F)nc(N)c21` (stereo not shown) [Compound E18] and `CN(C)c1nc(COC(=N)N2CCC[C@@H]2C(F)(F)F)nc2c1C(C)(C)C(=O)N2c1ccc(N2CCOCC2)cc1` [Compound E54] cannot be ordered by IC50: under 0.1 µM for the first, under 0.1 µM for the second.

`CNc1nc(COC(=N)N2CCC[C@@H]2C(F)(F)F)nc2c1C(C)(C)CN2c1ccc(N2C[C@@H](C)O[C@@H](C)C2)nc1` [Compound E19] and `C[C@@H]1CN(c2ccc(N3CC(C)(C)c4c(N)nc(COC(=N)N5CCC[C@@H]5C(F)(F)F)nc43)cn2)C[C@H](C)O1` [Compound E20] cannot be ordered by IC50: under 0.1 µM for the first, under 0.1 µM for the second.

`C[C@@H]1CN(c2ccc(N3CC4(CCC4)c4c(NCC(F)(F)F)nc(COC(=N)N5CCC[C@@H]5C(F)(F)F)nc43)cn2)C[C@H](C)O1` [Compound E21] and `C[C@@H]1CN(c2ccc(N3C(=O)C4(CCCC4)c4c(NCC(F)(F)F)nc(COC(=N)N5CCC[C@@H]5C(F)(F)F)nc43)cn2)C[C@H](C)O1` [Compound E44] cannot be ordered by IC50: under 0.1 µM for the first, under 0.1 µM for the second.

`CNc1nc(COC(=N)N2CCCC2C(F)(F)F)nc2c1C(C)(C)C(=O)N2c1ccc(N2CCC(F)(F)CC2)nc1` (stereo not shown) [Compound E22] and `CC1(C)C(=O)N(c2cnc(N3CCC(F)(F)CC3)nc2)c2nc(COC(=N)N3CCC[C@@H]3C(F)(F)F)nc(NC3CC3)c21` [Compound E59] cannot be ordered by IC50: under 0.1 µM for the first, under 0.1 µM for the second.

`CNc1nc(COC(=N)N2CCCC2C(F)(F)F)nc2c1C(C)(C)C(=O)N2c1ccc(N2C[C@@H](C)O[C@@H](C)C2)cc1` (stereo partly shown) [Compound E23] and `CNc1nc(COC(=N)N2CCC[C@@H]2C(F)(F)F)nc2c1C(C)(C)C(=O)N2c1cnc(N2C[C@@H](C)O[C@@H](C)C2)c(F)c1` [Compound E36] cannot be ordered by IC50: under 0.1 µM for the first, under 0.1 µM for the second.

Compared with `CC#CC(C)(C)N(C)C(=N)OCc1nc(N)c2c(n1)N(c1ccc(N3CCOCC3)cc1)C(=O)C2(C)C` [Compound E27], `CC1(C)C(=O)N(c2ccc(N3CCOCC3)cc2)c2nc(COC(=N)N3CC(F)C[C@H]3C(F)(F)F)nc(N)c21` (stereo partly shown) [Compound E52] is lower in IC50: 0.5 to 5 µM for the first, 0.1 to 0.5 µM for the second. The second is the more potent here.

`CNc1nc(COC(=N)N2CCC[C@@H]2C(F)(F)F)nc2c1C(C)(C)C(=O)N2c1cc(F)c2c(cnn2C(C)C)c1` [Compound E31] and `CNc1nc(COC(=N)N2CCC[C@@H]2C(F)(F)F)nc2c1C(C)(C)C(=O)N2c1ccc(N2C[C@H](C)C[C@H](C)C2)c(F)c1` [Compound E39] cannot be ordered by IC50: under 0.1 µM for the first, under 0.1 µM for the second.

`C[C@@H]1CN(c2ccc(N3C(=O)C4(CCC4)c4c(N)nc(COC(=N)N5CCC[C@@H]5C(F)(F)F)nc43)cn2)C[C@H](C)O1` [Compound E33] and `C[C@@H]1CN(c2ncc(N3C(=O)C(C)(C)c4c(N)nc(COC(=N)N5CCC[C@@H]5C(F)(F)F)nc43)cc2F)C[C@H](C)O1` [Compound E37] cannot be ordered by IC50: under 0.1 µM for the first, under 0.1 µM for the second.

`C[C@@H]1C[C@H](C)CN(c2ncc(N3C(=O)C(C)(C)c4c(N)nc(COC(=N)N5CCC[C@@H]5C(F)(F)F)nc43)cc2F)C1` [Compound E34] and `C[C@@H]1C[C@H](C)CN(c2ccc(N3C(=O)C(C)(C)c4c(N)nc(COC(=N)N5CCC[C@@H]5C(F)(F)F)nc43)cc2F)C1` [Compound E35] cannot be ordered by IC50: under 0.1 µM for the first, under 0.1 µM for the second.

`C[C@@H]1CN(c2ccc(N3C(=O)C(C)(C)c4c(NCC(F)(F)F)nc(COC(=N)N5CCC[C@@H]5C(F)(F)F)nc43)cn2)C[C@H](C)O1` [Compound E38] and `C[C@@H]1CN(c2ccc(N3C(=O)C(C)(C)c4c(NCC(F)(F)F)nc(COC(=N)N5CCC[C@@H]5C(F)(F)F)nc43)cc2F)C[C@H](C)O1` [Compound E50] cannot be ordered by IC50: under 0.1 µM for the first, under 0.1 µM for the second.

`CNc1nc(COC(=N)N2CC(F)(F)C[C@@H]2C)nc2c1C(C)(C)C(=O)N2c1ccc(N2CCOCC2)cc1` [Compound E41] and `CNc1nc(COC(=N)N2CC(F)(F)C[C@H]2C)nc2c1C(C)(C)C(=O)N2c1ccc(N2CCOCC2)cc1` [Compound E42] fall in the same range of IC50: 0.1 to 0.5 µM for the first, 0.1 to 0.5 µM for the second.

`C[C@@H]1C[C@H](C)CN(c2ccc(N3C(=O)C(C)(C)c4c(NCC(F)(F)F)nc(COC(=N)N5CCC[C@@H]5C(F)(F)F)nc43)cc2F)C1` [Compound E43] and `CC1(C)C(=O)N(c2cc(F)c3c(c2)CCCO3)c2nc(COC(=N)N3CCC[C@@H]3C(F)(F)F)nc(NCC(F)(F)F)c21` [Compound E51] cannot be ordered by IC50: under 0.1 µM for the first, under 0.1 µM for the second.

Compared with `COc1cc(N2C[C@@H](C)O[C@@H](C)C2)ncc1N1C(=O)C(C)(C)c2c(N)nc(COC(=N)N3CCC[C@@H]3C(F)(F)F)nc21` [Compound E47], `CC1(C)C(=O)N(c2cc(F)c3c(c2)CCO3)c2nc(COC(=N)N3CCC[C@@H]3C(F)(F)F)nc(N)c21` [Compound E65] is lower in IC50: 0.1 to 0.5 µM for the first, under 0.1 µM for the second. The second is the more potent here.

`CC1(C)C(=O)N(c2ccc(N3CCOCC3)cc2)c2nc(COC(=N)N3CCC[C@@H]3C(F)(F)F)nc(NCC(F)(F)F)c21` [Compound E48] and `CC1(C)C(=O)N(c2ccc(N3CCCCC3)cc2)c2nc(COC(=N)N3CCC[C@@H]3C(F)(F)F)nc(NCC(F)(F)F)c21` [Compound E49] cannot be ordered by IC50: under 0.1 µM for the first, under 0.1 µM for the second.

`N=C(OCc1nc(NC2CC2)c2c(n1)N(c1ccc(N3CCOCC3)cc1)C(=O)C21CCCC1)N1CCC[C@@H]1C(F)(F)F` [Compound E53, (4′-(cyclopropylamino)-7′-(4-morpholinophenyl)-6′-oxo-6′,7′-dihydrospiro[cyclopentane-1,5′-pyrrolo[2,3-d]pyrimidin]-2′-yl)methyl (R)-2-(trifluoromethyl)pyrrolidine-1-carbimidate] and `C=CCNc1nc(COC(=N)N2CCC[C@@H]2C(F)(F)F)nc2c1C(C)(C)C(=O)N2c1ccc(N2CCOCC2)cc1` [Compound E56] cannot be ordered by IC50: under 0.1 µM for the first, under 0.1 µM for the second.

`N=C(OCc1nc(NC2CC2)c2c(n1)N(c1cc(F)c3c(c1)CCO3)C(=O)C21CCCCC1)N1CCC[C@@H]1C(F)(F)F` [Compound E55] and `N=C(OCc1nc(NCC(F)(F)F)c2c(n1)N(c1cc(F)c3c(c1)CCO3)C(=O)C21CCCC1)N1CCC[C@@H]1C(F)(F)F` [Compound E61] cannot be ordered by IC50: under 0.1 µM for the first, under 0.1 µM for the second.

`N=C(OCc1nc(N)c2c(n1)N(c1cnc(C3CC3)nc1)C(=O)C21CCCC1)N1CCC[C@@H]1C(F)(F)F` [Compound E63] gave an IC50 of under 0.1 µM.
